From paper PMC10449633 (Nature Chemical Biology, 2023)
“And” between values parts separate entries of the source, which are not always exact repeats. Equal values may be shown once.

Key:
[1] = test system: mouse skin inflammation model; parameters: method as in PMID 26019221; details: at its maximum tolerated dose; cited from earlier work
Sec61 = biological target: T1, Sec61 (Homo sapiens, UniProt P61619); test: cell-based; format: cell-based
T1 construct: endogenous in cells
T1 sequence (P61619 whole entry): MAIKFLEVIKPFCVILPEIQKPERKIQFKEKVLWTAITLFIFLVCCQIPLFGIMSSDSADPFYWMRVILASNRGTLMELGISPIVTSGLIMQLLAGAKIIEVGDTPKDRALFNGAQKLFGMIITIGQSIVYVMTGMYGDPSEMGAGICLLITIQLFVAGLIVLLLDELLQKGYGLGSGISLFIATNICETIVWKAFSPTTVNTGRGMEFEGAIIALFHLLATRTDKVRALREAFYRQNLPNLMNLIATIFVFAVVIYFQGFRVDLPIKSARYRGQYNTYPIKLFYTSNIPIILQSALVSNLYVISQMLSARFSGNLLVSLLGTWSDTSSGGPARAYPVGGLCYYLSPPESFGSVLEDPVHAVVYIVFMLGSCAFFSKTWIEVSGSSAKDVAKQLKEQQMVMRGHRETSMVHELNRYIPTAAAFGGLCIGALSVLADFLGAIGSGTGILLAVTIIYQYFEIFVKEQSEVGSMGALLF
T1 sequence (P60059 whole entry, further chain): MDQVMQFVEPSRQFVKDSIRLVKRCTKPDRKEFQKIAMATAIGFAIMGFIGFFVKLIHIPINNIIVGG
T1 sequence (P60468 whole entry, further chain): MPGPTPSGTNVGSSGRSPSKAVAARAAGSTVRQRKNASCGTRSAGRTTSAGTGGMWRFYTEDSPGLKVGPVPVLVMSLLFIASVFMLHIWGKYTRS

## mycolactone A/B
[1]
  efficacy in mouse skin inflammation model: modest efficacy
Sec61; HEK293T, 24 h
  potency against VCAM-GLuc relative to pPL-GLuc: equipotent
Sec61; VCAM signal peptide, Drug nM (log10) 0.18303
  secreted luciferase activity (% of no-drug control): 91.1752% and 96.3566% and 105.08% and 96.2111%
Sec61; VCAM signal peptide, Drug nM (log10) 0.660151
  secreted luciferase activity (% of no-drug control): 60.5653% and 60.6911% and 72.2191% and 65.68%
Sec61; VCAM signal peptide, Drug nM (log10) 1.13727
  secreted luciferase activity (% of no-drug control): 69.7373% and 62.7916% and 84.5753% and 63.8152%
Sec61; VCAM signal peptide, Drug nM (log10) 1.61439
  secreted luciferase activity (% of no-drug control): 23.3051% and 17.9704% and 24.3586% and 17.2696%
Sec61; VCAM signal peptide, Drug nM (log10) 2.09151
  secreted luciferase activity (% of no-drug control): 9.614% and 7.324% and 15.2923% and 7.158%
Sec61; VCAM signal peptide, Drug nM (log10) 2.56864
  secreted luciferase activity (% of no-drug control): 5.834% and 4.881% and 8.3778% and 4.722%
Sec61; VCAM signal peptide, Drug nM (log10) 3.04576
  secreted luciferase activity (% of no-drug control): 4.831% and 3.708% and 6.049% and 3.853%
Sec61; VCAM signal peptide, Drug nM (log10) 3.52288
  secreted luciferase activity (% of no-drug control): 3.813% and 3.595% and 4.497% and 3.349%
Sec61; VCAM signal peptide, Drug nM (log10) 4
  secreted luciferase activity (% of no-drug control): 4.399% and 3.701% and 4.702% and 3.31%
Sec61; VCAM signal peptide, Drug nM (log10) -0.29409
  secreted luciferase activity (% of no-drug control): 91.3897% and 90.48% and 98.9457% and 92.5099%
Sec61; pPL signal peptide, Drug nM (log10) 0.18303
  secreted luciferase activity (% of no-drug control): 96.941% and 113.105% and 106.161% and 90.9819%
Sec61; pPL signal peptide, Drug nM (log10) 0.660151
  secreted luciferase activity (% of no-drug control): 87.4346% and 105.37% and 92.2325% and 88.4507%
Sec61; pPL signal peptide, Drug nM (log10) 1.13727
  secreted luciferase activity (% of no-drug control): 90.1482% and 100.766% and 90.4471% and 85.7727%
Sec61; pPL signal peptide, Drug nM (log10) 1.61439
  secreted luciferase activity (% of no-drug control): 34.1743% and 36.4459% and 25.7816% and 32.3021%
Sec61; pPL signal peptide, Drug nM (log10) 2.09151
  secreted luciferase activity (% of no-drug control): 11.7024% and 15.7348% and 12.066% and 11.9677%
Sec61; pPL signal peptide, Drug nM (log10) 2.56864
  secreted luciferase activity (% of no-drug control): 10.1212% and 10.0148% and 7.898% and 9.649%
Sec61; pPL signal peptide, Drug nM (log10) 3.04576
  secreted luciferase activity (% of no-drug control): 5.549% and 7.948% and 6.334% and 6.2294%
Sec61; pPL signal peptide, Drug nM (log10) 3.52288
  secreted luciferase activity (% of no-drug control): 4.849% and 7.368% and 5.461% and 6.2207%
Sec61; pPL signal peptide, Drug nM (log10) 4
  secreted luciferase activity (% of no-drug control): 4.167% and 6.905% and 5.234% and 5.9772%
Sec61; pPL signal peptide, Drug nM (log10) -0.29409
  secreted luciferase activity (% of no-drug control): 102.214% and 111.849% and 98.9284% and 92.0234%
